The IC50 is the midpoint of a concentration-inhibition curve. For orientation: viability means a per cent measure of how many cells are alive, often set against a control.

The values below come from paper PMC5046141, “Discovery of Isoquinolinoquinazolinones as a Novel Class of Potent PPARγ Antagonists with Anti-adipogenic Effects” (Scientific Reports, 2016).

A value given as a limit tells only on which side of the number the result lay.

For one series, the target named is T1, PPARγ2 (Mus musculus, UniProt P37238).
T1 construct: expressed in transfected cells; host or cells: 3T3-L1 (mouse preadipocytes), pCS4 CMV vector
T1 sequence (P37238 1-505): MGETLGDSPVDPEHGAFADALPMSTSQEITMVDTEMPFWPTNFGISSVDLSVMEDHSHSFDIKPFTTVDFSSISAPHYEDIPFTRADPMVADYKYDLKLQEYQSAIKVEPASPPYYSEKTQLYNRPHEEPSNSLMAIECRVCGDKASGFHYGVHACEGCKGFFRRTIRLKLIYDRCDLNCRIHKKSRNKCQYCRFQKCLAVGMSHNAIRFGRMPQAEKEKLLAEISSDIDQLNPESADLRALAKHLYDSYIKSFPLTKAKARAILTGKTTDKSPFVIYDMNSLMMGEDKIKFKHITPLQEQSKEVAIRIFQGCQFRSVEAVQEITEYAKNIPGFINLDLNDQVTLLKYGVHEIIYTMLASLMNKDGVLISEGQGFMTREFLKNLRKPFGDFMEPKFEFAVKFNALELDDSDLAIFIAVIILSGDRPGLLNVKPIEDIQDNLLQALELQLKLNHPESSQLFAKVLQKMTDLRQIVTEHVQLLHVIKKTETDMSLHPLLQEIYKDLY
Nature of the series: PPRE-Luc luciferase reporter assay of PPARγ2-induced transcriptional activity in 3T3-L1 cells. The following applies: for inhibition of PPARγ2 transfection (transcriptional activity), with rosiglitazone stimulation / inhibition of PPARγ2 transfection (transcriptional activity), compound alone: 5 μM; for inhibition of PPARγ2 transfection (transcriptional activity), compound alone: without rosiglitazone; for IC50: 3T3-L1 cotransfected with PPARγ2 and PPRE-Luc, read-out: IC50 with respect to PPARγ2-induced transcriptional activity. Format: cell-based. As for the experimental part: To analyze whether isoquinolinoquinazolinones inhibit the transactivation of PPARγ, 3T3-L1 cells were cotransfected with full-length PPARγ2 expression vector with a peroxisome proliferator response element (PPRE)-driven luciferase reporter gene (PPRE-Luc) that has been reported to respond to PPARγ[23][24]. […] Titration curves were generated using Graph Pad Prism®, and the IC50 value of each compound with respect to PPARγ2-induced transcriptional activity was determined.
The transcription activity was determined in 3T3-L1 cells transiently co-transfected with PPRE-driven luciferase reporter gene (PPRE-Luc) and PPARγ2 expression vector. […] After 24 h of transfection, the cells were cultured with indicated combination for 12 h. Luciferase activity was measured after 36 h.
For plasmids expressing PPARγ2, full length PPARγ2 (mouse, 1518 bp: NCBI Reference Sequence: NP_035276.2) was subcloned into CMV promoter-derived mammalian expression vector (pCS4). Plasmids for C285G, R288G mutant PPARγ2 were generated by PCR-based site-directed mutagenesis and also subcloned into CMV promoter-derived mammalian expression vector (pCS4).
3T3-L1 cells were transfected for indicated combinations of expression plasmids along with a luciferase reporter plasmid (PPRE-Luc). PPRE-Luc contains the consensus PPAR responsive element (PPRE). pCMV-β-gal was co-transfected for normalization of transfection efficiency. 24 h after transfection, cells were treated with indicated compounds for 12 h. Luciferase activities were measured using a luciferase reporter assay kit (Promega, Madison, WI, USA). Experiments were performed in triplicate and repeated at least three times.
In general terms: Reporter assays use an easily measured gene product as a stand-in for the process of interest.

In the next series the test system is 3T3-L1 preadipocytes. The experiment in a line: Oil Red O staining assay of adipocyte differentiation. The settings on record: for inhibition at 25 µM: Mus musculus, 3T3-L1, relative absorbance from Oil Red O staining at 25 μM, read-out: Inhibitory activity (%) on adipocyte differentiation. The class given is cell-based, mouse. As for the experimental part:
The GW9662-mediated inhibition of PPARγ was confirmed using an Oil Red O staining assay to measure adipocyte differentiation. To investigate whether the novel compounds could inhibit adipocyte differentiation, 3T3-L1 preadipocytes were incubated with differentiation medium (MDI; insulin, dexamethasone, and isobutyl methyl xanthine) in the presence of increasing concentrations of isoquinolinoquinazolinones. Adipogenesis was analyzed using Oil Red O staining after treatment with the compounds.
The mouse preadipocyte cell line 3T3-L1 was maintained at 37 °C in humidified air with 5% CO2. 3T3-L1 cells were cultured in Dulbecco’s modified Eagle medium (DMEM; Life Technologies) supplemented with 10% bovine serum (BS; Gibco Invitrogen, Carlsbad, California, USA) as growth medium. For adipocyte differentiation, cells were cultured for 2 days to full confluence in a 24-well plate and the growth medium was then replaced (day 0) with DMEM supplemented with 10% fetal bovine serum (FBS, Gibco Invitrogen, Carlsbad, California, USA), 5 μg/mL insulin (Sigma, St. Louis, Missouri, USA), 0.5 mM 3-isobutyl-1-methylxanthine (Sigma), and 1 μM dexamethasone (Sigma). After 48 h, the differentiation medium was replaced (day 2) with DMEM + 10% FBS containing 5 μg/mL insulin, and the cells were allowed to accumulate lipid droplets until experimental use.
The accumulation of lipids signifying the formation of adipocytes was observed by staining the differentiated cells with Oil Red O. Following differentiation, cells were washed twice with phosphate-buffered saline (PBS), fixed with 10% formalin for 60 min. Oil Red O stock solution (0.5%) was prepared in isopropanol and filtered in cellulose nitrate filters. Cells were stained with Oil Red O diluted 6:4 in water for 1 h at room temperature. Excess Oil Red O dye was washed off twice with distilled water and then dried. The stained lipid droplets within cells were visualized using an optical microscope and photographed with a digital camera at 100× magnification.

A short description of series [1]: Cytotoxicity in 3T3-L1 cells. The class given is cell-based. The following applies: mouse, read-out: cell viability. The method, then: Prior to testing the PPARγ antagonist potential of isoquinolinoquinazolinones, their cytotoxicity in 3T3-L1 cells (normal cells) was examined. […] These two compounds were then tested for PPARγ inhibitory activity.

Turning to `O=C(Nc1ccccc1)c1cc([N+](=O)[O-])ccc1Cl` [GW9662, reference compound], on PPARγ2, the “inhibition of PPARγ2 transfection (transcriptional activity), with rosiglitazone stimulation” value is on record as 48%; the “inhibition of PPARγ2 transfection (transcriptional activity), compound alone” value is listed as 46%; the IC50 amounted to 4.47 µM. For the same molecule, the inhibition at 25 µM with 3T3-L1 preadipocytes turned out to be 51.4%.
Turning to `COc1cc2cc3n(c(=O)c2cc1OC)CNc1cc(Cl)ccc1-3` [Compound 8o, 3-Chloro-10,11-dimethoxy-5H-isoquinolino[2,3-c]quinazolin-8(6H)-one], at PPARγ2, the “inhibition of PPARγ2 transfection (transcriptional activity), with rosiglitazone stimulation” value was determined as 88%; the “inhibition of PPARγ2 transfection (transcriptional activity), compound alone” value stood at 82%; the IC50 is 2.43 µM. Further, the viability at 25 µM in series [1] is more than 70%. For the same molecule, the inhibition at 25 µM in the series on 3T3-L1 preadipocytes was 82.9%. In addition, the “Inhibitory activity (%) on adipocyte differentiation” value with 3T3-L1 preadipocytes (relative absorbance from Oil Red O staining at 25 μM, 25 µM) came out at 82.4%.
Take `COc1cc2cc3n(c(=O)c2cc1OC)CNc1ccc(Cl)cc1-3` [Compound 8n, 2-Chloro-10,11-dimethoxy-5H-isoquinolino[2,3-c]quinazolin-8(6H)-one]: the IC50 at PPARγ2 amounted to 5.02 µM. Further, the viability at 25 µM in series [1] was more than 70%. The inhibition at 25 µM in the series on 3T3-L1 preadipocytes was determined as 71.5%.
